Measured values from the supplement of paper PMC10307832.

Key:
Assay in all cases: relative viability (nuclei count vs DMSO), 5 days (fraction); higher = more cells survive
[1] = test system: HCC-827
Procedure, shortened: (§1)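 After 5 days of treatment, lung cancer cells in 1536-well plates were fixed and stained in a single step (final 0.05% Triton X-100, 1% formaldehyde, 1 ug/ml Hoechst) and their nuclei counted on 4× images. Treatment had been applied by pin tool the day after seeding as one drug alone or as a fixed anchor-drug dose with five library-drug doses (not always all listed) in √10 steps. Relative viability is the nuclei count of treated wells divided by that of vehicle wells, and values are medians of duplicate plates.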

[2] = test system: HCC-366
Procedure, shortened: as §1

[3] = test system: LK-2
Procedure, shortened: as §1

[4] = test system: EKVX
Procedure, shortened: as §1

[5] = test system: LU99A
Procedure, shortened: as §1

[6] = test system: NCI-H1650
Procedure, shortened: as §1

[7] = test system: NCI-H1755
Procedure, shortened: as §1

[8] = test system: NCI-H1734
Procedure, shortened: as §1

[9] = test system: NCI-H1648
Procedure, shortened: as §1

[10] = test system: LC-2-ad
Procedure, shortened: as §1

[11] = test system: RERF-LC-KJ
Procedure, shortened: as §1

[12] = test system: NCI-H661
Procedure, shortened: as §1

[13] = test system: 201T
Procedure, shortened: as §1

[14] = test system: HCC-15
Procedure, shortened: as §1

[15] = test system: NCI-H2347
Procedure, shortened: as §1

[16] = test system: HCC-78
Procedure, shortened: as §1

[17] = test system: NCI-H441
Procedure, shortened: as §1

[18] = test system: COR-L 105
Procedure, shortened: as §1

[19] = test system: COR-L23
Procedure, shortened: as §1

[20] = test system: NCI-H1944
Procedure, shortened: as §1

[21] = test system: NCI-H1915
Procedure, shortened: as §1

[22] = test system: BEN
Procedure, shortened: as §1

[23] = test system: PC-3 [JPC-3]
Procedure, shortened: as §1

[24] = test system: SW 900
Procedure, shortened: as §1

`C=C1C(=O)O[C@@H](CCCCCCCC)[C@@H]1C(=O)O` [C-75] + Nc1nc2[nH]cc(CCc3ccc(C(=O)N[C@@H](CCC(=O)O)C(=O)O)cc3)c2c(=O)[nH]1 [Pemetrexed] (partner 0.2 µM) gave a relative viability ([1]; first compound 0.253 µM) of 0.271, a relative viability ([1]; first compound 0.8 µM) of 0.279 and a relative viability ([1]; first compound 8 µM) of 0.287. For the same compound, the relative viability ([2]; first compound 0.08 µM) was 0.156, the relative viability ([2]; first compound 0.253 µM) was 0.183 and the relative viability ([2]; first compound 0.8 µM) was 0.149. The relative viability ([2]; first compound 2.53 µM) was 0.22, the relative viability ([2]; first compound 8 µM) was 0.188 and the relative viability ([3]; first compound 0.08 µM) was 0.214. For the same compound, the relative viability ([3]; first compound 0.253 µM) was 0.301, the relative viability ([3]; first compound 0.8 µM) was 0.215 and the relative viability ([3]; first compound 2.53 µM) was 0.2. It also gave a relative viability ([3]; first compound 8 µM) of 0.246, a relative viability ([4]; first compound 0.08 µM) of 0.45 and a relative viability ([4]; first compound 0.253 µM) of 0.491. For the same compound, the relative viability ([4]; first compound 0.8 µM) was 0.366, the relative viability ([4]; first compound 8 µM) was 0.358 and the relative viability ([5]; first compound 0.08 µM) was 0.191. It also gave a relative viability ([5]; first compound 0.253 µM) of 0.212, a relative viability ([5]; first compound 0.8 µM) of 0.195 and a relative viability ([5]; first compound 2.53 µM) of 0.19. It also gave a relative viability ([5]; first compound 8 µM) of 0.21, a relative viability ([6]; first compound 0.08 µM) of 0.365 and a relative viability ([6]; first compound 0.253 µM) of 0.401. The relative viability ([6]; first compound 0.8 µM) was 0.384, the relative viability ([6]; first compound 8 µM) was 0.372 and the relative viability ([7]; first compound 0.08 µM) was 0.457. For the same compound, the relative viability ([7]; first compound 0.253 µM) was 0.468, the relative viability ([7]; first compound 0.8 µM) was 0.46 and the relative viability ([7]; first compound 2.53 µM) was 0.391. It also gave a relative viability ([7]; first compound 8 µM) of 0.438, a relative viability ([8]; first compound 0.08 µM) of 0.382 and a relative viability ([8]; first compound 0.253 µM) of 0.396. It also gave a relative viability ([8]; first compound 0.8 µM) of 0.41, a relative viability ([8]; first compound 2.53 µM) of 0.359 and a relative viability ([8]; first compound 8 µM) of 0.361. It also gave a relative viability ([9]; first compound 0.08 µM) of 0.731, a relative viability ([9]; first compound 0.253 µM) of 1.01 and a relative viability ([9]; first compound 0.8 µM) of 0.681. It also gave a relative viability ([9]; first compound 8 µM) of 0.606, a relative viability ([10]; first compound 0.08 µM) of 0.283 and a relative viability ([10]; first compound 0.253 µM) of 0.265. The relative viability ([10]; first compound 0.8 µM) was 0.285, the relative viability ([10]; first compound 2.53 µM) was 0.279 and the relative viability ([10]; first compound 8 µM) was 0.271. For the same compound, the relative viability ([11]; first compound 0.08 µM) was 0.456, the relative viability ([11]; first compound 0.253 µM) was 0.487 and the relative viability ([11]; first compound 0.8 µM) was 0.469. For the same compound, the relative viability ([11]; first compound 2.53 µM) was 0.46, the relative viability ([11]; first compound 8 µM) was 0.461 and the relative viability ([12]; first compound 0.08 µM) was 0.919. For the same compound, the relative viability ([12]; first compound 0.253 µM) was 0.925, the relative viability ([12]; first compound 0.8 µM) was 0.856 and the relative viability ([12]; first compound 2.53 µM) was 0.783. It also gave a relative viability ([12]; first compound 8 µM) of 0.881, a relative viability ([13]; first compound 0.08 µM) of 0.337 and a relative viability ([13]; first compound 0.253 µM) of 0.323. The relative viability ([13]; first compound 0.8 µM) was 0.296, the relative viability ([13]; first compound 2.53 µM) was 0.311 and the relative viability ([13]; first compound 8 µM) was 0.308. It also gave a relative viability ([14]; first compound 0.08 µM) of 0.246, a relative viability ([14]; first compound 0.253 µM) of 0.239 and a relative viability ([14]; first compound 0.8 µM) of 0.203. It also gave a relative viability ([14]; first compound 2.53 µM) of 0.208, a relative viability ([14]; first compound 8 µM) of 0.223 and a relative viability ([15]; first compound 0.08 µM) of 0.402. The relative viability ([15]; first compound 0.253 µM) was 0.388, the relative viability ([15]; first compound 0.8 µM) was 0.442 and the relative viability ([15]; first compound 2.53 µM) was 0.447. It also gave a relative viability ([15]; first compound 8 µM) of 0.48, a relative viability ([16]; first compound 0.08 µM) of 0.829 and a relative viability ([16]; first compound 0.253 µM) of 0.902. It also gave a relative viability ([16]; first compound 0.8 µM) of 0.839, a relative viability ([16]; first compound 8 µM) of 0.893 and a relative viability ([17]; first compound 0.08 µM) of 0.295. For the same compound, the relative viability ([17]; first compound 0.253 µM) was 0.278, the relative viability ([17]; first compound 0.8 µM) was 0.283 and the relative viability ([17]; first compound 8 µM) was 0.263. The relative viability ([18]; first compound 0.08 µM) was 1.14, the relative viability ([18]; first compound 0.253 µM) was 1.07 and the relative viability ([18]; first compound 0.8 µM) was 1.07. It also gave a relative viability ([18]; first compound 2.53 µM) of 1.24, a relative viability ([18]; first compound 8 µM) of 0.96 and a relative viability ([19]; first compound 0.08 µM) of 0.197. The relative viability ([19]; first compound 0.253 µM) was 0.197, the relative viability ([19]; first compound 0.8 µM) was 0.2 and the relative viability ([19]; first compound 2.53 µM) was 0.2. For the same compound, the relative viability ([19]; first compound 8 µM) was 0.198, the relative viability ([20]; first compound 0.08 µM) was 0.645 and the relative viability ([20]; first compound 0.253 µM) was 0.784. The relative viability ([20]; first compound 0.8 µM) was 0.509, the relative viability ([20]; first compound 2.53 µM) was 0.564 and the relative viability ([20]; first compound 8 µM) was 0.57. For the same compound, the relative viability ([21]; first compound 0.08 µM) was 0.471, the relative viability ([21]; first compound 0.253 µM) was 0.475 and the relative viability ([21]; first compound 0.8 µM) was 0.483. The relative viability ([21]; first compound 2.53 µM) was 0.448, the relative viability ([21]; first compound 8 µM) was 0.527 and the relative viability ([22]; first compound 0.08 µM) was 0.753. The relative viability ([22]; first compound 0.253 µM) was 0.816, the relative viability ([22]; first compound 0.8 µM) was 0.688 and the relative viability ([22]; first compound 2.53 µM) was 0.842. The relative viability ([22]; first compound 8 µM) was 0.766, the relative viability ([23]; first compound 0.08 µM) was 1.07 and the relative viability ([23]; first compound 0.253 µM) was 0.979. For the same compound, the relative viability ([23]; first compound 0.8 µM) was 0.81, the relative viability ([23]; first compound 2.53 µM) was 0.874 and the relative viability ([23]; first compound 8 µM) was 1.14. The relative viability ([24]; first compound 0.08 µM) was 0.446, the relative viability ([24]; first compound 0.253 µM) was 0.462 and the relative viability ([24]; first compound 0.8 µM) was 0.479. For the same compound, the relative viability ([24]; first compound 2.53 µM) was 0.301 and the relative viability ([24]; first compound 8 µM) was 0.454.
